In patent US10376481B2, “Compounds and methods for inhibiting NHE-mediated antiport in the treatment of disorders associated with fluid retention or salt overload and gastrointestinal tract disorders” (ARDELYX, INC, priority 2012, dated 2019):

How the values were obtained:
[1] = target: T1, human NHE3 (Homo sapiens, UniProt P48764); experiment: Cell-based assay of NHE-3 activity (pre-incubation inhibition), human; conditions: for IC50: PS120 fibroblasts stably expressing human NHE3, 10 min pre-incubation with 0-30 μM test compound, read-out: pIC50 (human Preincubation assay) (converted); for % inhibition (human Preincubation assay): PS120 fibroblasts stably expressing human NHE3, pre-incubation with test compound
T1 sequence (P48764 26-834): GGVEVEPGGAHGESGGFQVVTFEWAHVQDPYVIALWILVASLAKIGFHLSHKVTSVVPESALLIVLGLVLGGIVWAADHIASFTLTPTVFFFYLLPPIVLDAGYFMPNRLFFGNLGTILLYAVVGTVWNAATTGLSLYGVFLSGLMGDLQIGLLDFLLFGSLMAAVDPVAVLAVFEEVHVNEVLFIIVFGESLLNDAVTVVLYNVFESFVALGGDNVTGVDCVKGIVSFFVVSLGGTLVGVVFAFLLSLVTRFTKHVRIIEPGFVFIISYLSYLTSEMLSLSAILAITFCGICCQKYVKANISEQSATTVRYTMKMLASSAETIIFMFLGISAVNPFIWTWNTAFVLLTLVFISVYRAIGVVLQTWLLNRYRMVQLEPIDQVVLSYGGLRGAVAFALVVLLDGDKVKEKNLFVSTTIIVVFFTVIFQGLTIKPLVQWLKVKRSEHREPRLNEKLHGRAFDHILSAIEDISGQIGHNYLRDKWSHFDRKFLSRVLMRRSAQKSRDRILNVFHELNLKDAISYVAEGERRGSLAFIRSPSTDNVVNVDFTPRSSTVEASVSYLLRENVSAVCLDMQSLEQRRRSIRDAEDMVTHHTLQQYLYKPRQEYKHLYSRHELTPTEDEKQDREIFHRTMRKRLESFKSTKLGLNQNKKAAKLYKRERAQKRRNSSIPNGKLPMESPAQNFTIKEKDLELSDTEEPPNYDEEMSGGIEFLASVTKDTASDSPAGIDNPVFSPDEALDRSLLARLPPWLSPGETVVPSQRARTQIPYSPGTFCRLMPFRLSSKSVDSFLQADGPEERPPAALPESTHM
Description: Rat and human NHE-3-mediated Na^+-dependent H^+ antiport was measured using a modification of the pH sensitive dye method originally reported by Paradiso (Proc. Natl. Acad. Sci. USA. (1984) 81(23): 7436-7440, which is hereby incorporated by reference in its entirety). PS120 fibroblasts stably expressing human NHE3 were obtained from Mark Donowitz (Baltimore, Md.). Opossum kidney (OK) cells were obtained from the ATCC and propagated per their instructions. The rat NHE-3 gene (GenBank M85300) was introduced into OK cells via electroporation, and cells were seeded into 96 well plates and grown overnight. Medium was aspirated from the wells then incubated for 30 min at 37° C. with NH4Cl-HEPES buffer (20 mM NH4Cl, 80 mM NaCl, 50 mM HEPES, 5 mM KCl, 2 mM CaCl2, 1 mM MgCl2, pH 7.4) containing 5 μM BCECF-AM. Cells were washed once with Ammonium free, Nat-free HEPES (100 mM choline, 50 mM HEPES, 10 mM glucose, 5 mM KCl, 2 mM CaCl2, 1 mM MgCl2, pH 7.4) and incubated in the same buffer for 10 minutes at room temperature to lower intracellular pH with 0-30 μM test compound. […] Changes in intracellular pH were monitored using a FLIPR Tetra® (Molecular Devices, Sunnyvale, Calif.) by excitation at λex 439 to 505 nm, and measuring BCECF fluorescence at λem 538 nm. The initial rate of the fluorescence ratio change was used as a measure of NHE-mediated Na^+/H^+ activity, and reported as the change in fluorescence ratio per minute. Initial rates were plotted as the average 2 or more replicates, and pIC50 values were estimated using GraphPad Prism.

[2] = test system: absorption of sodium from the intestinal lumen; experiment: Inhibition of intestinal sodium absorption: rat urinary sodium and fecal form 16 h post-dose; format: in vivo, Sprague-Dawley rats; conditions: for response vs control in vivo at 10 mg/kg / FFS (fecal form score): oral gavage 10 mg/kg; for FFS (fecal form score): 16 h post-dose, scale 1-5, group average
Description: Urinary sodium concentration and fecal form were measured to assess the ability of selected example compounds to inhibit the absorption of sodium from the intestinal lumen. Eight-week old Sprague-Dawley rats were purchased from Charles River Laboratories (Hollister, Calif.), were housed 2 per cage, and acclimated for at least 3 days before study initiation. Animals were fed Harlan Teklad Global 2018 rodent chow (Indianapolis, Ind.) and water ad libitum throughout the study and maintained in a standard light/dark cycle of 6 AM to 6 PM. On the day of the study, between 4 PM and 5 PM, a group of rats (n=6) were dosed via oral gavage with test compound or vehicle (water) at a volume of 10 mL/kg. After dose administration animals were placed in individual metabolic cages where they were also fed the same chow in meal form and watered ad libitum. At 16 h post-dose, the urine samples were collected and fecal form was assessed by two independent observations. Fecal forms were scored according to a common scale associated with increasing fecal water to the wettest observation in the cage's collection funnel (1, normal pellet; 2, pellet adhering to sides of collection funnel due to moisture; 3, loss of normal pellet shape; 4, complete loss of shape with a blotting pattern; 5, liquid fecal streams evident). A rat's fecal form score (FFS) was determined by averaging both observational scores for all rats within a group (n=6). The vehicle group average was 1. For urine samples, the volumes were determined gravimetrically and centrifuged at 3,600×g. The supernatants were diluted 100-fold in deionized Milli-Q water then filtered through a 0.2 μm GHP Pall AcroPrep filter plate (Pall Life Sciences, Ann Arbor, Mich.) prior to analysis by ion chromatography. Ten microliters of each filtered extract was injected onto a Dionex ICS-3000 ion chromatograph system (Dionex, Sunnyvale, Calif.). Cations were separated by an isocratic method using 25 mM methanesulfonic acid as the eluent on an IonPac CS12A 2 mm i.d.×250 mm, 8 μm particle size cation exchange column (Dionex). Sodium was quantified using standards prepared from a cation standard mix containing Li^+, Na^+, NH4^+, K^+, Mg^2+, and Ca^2+ (Dionex). The mean mass of sodium urinated for every group in the 16 h period was determined with the vehicle group usually urinating approximately 21 mg sodium. The urine Na (uNa) for rats in the test groups were expressed as a percentage of the vehicle mean and the means were compared to that of the vehicle group by utilizing a one-way analysis of variance coupled with a Dunnett's post hoc test.

[3] = urine 16 h post-dose, read-out: uNa Result, uNa (% of vehicle)

| Structure (SMILES) | IC50 [1] | % inhibition (human Preincubation assay) [1] | response vs control in vivo at 10 mg/kg [2, 3] | FFS (fecal form score) [2] | response vs control in vivo at 3 mg/kg ([2]; oral gavage 3 mg/kg, urine 16 h post-dose, read-out: uNa Result, uNa (% of vehicle)) |
| --- | --- | --- | --- | --- | --- |
| CN(C)[C@H]1Cc2ccccc2[C@@H]1Oc1ccc(S(=O)(=O)NCCOCCOCCNC(=O)NCCCCNC(=O)NCCOCCOCCNS(=O)(=O)c2ccc(O[C@H]3c4ccccc4C[C@@H]3N(C)C)cc2)cc1 [Example 20] | < 100 nM | C (>70%) | 35 to 75% |  |  |
| CN(C)[C@H]1Cc2ccc(Cl)cc2[C@@H]1Oc1ccc(S(=O)(=O)NCCOCCOCCNC(=O)NCCCCNC(=O)NCCOCCOCCNS(=O)(=O)c2ccc(O[C@H]3c4cc(Cl)ccc4C[C@@H]3N(C)C)cc2)cc1 [Example 21] | < 100 nM | C (>70%) | > 75% |  |  |
| CN(C)[C@H]1Cc2ccc(F)cc2[C@@H]1Oc1ccc(S(=O)(=O)NCCOCCOCCNC(=O)NCCCCNC(=O)NCCOCCOCCNS(=O)(=O)c2ccc(O[C@H]3c4cc(F)ccc4C[C@@H]3N(C)C)cc2)cc1 [Example 22] | < 100 nM | C (>70%) | > 75% |  |  |
| O=C(NCCCCNC(=O)NCCOCCOCCNS(=O)(=O)c1ccc(O[C@H]2c3cc(F)ccc3C[C@@H]2N2CCCCC2)cc1)NCCOCCOCCNS(=O)(=O)c1ccc(O[C@H]2c3cc(F)ccc3C[C@@H]2N2CCCCC2)cc1 [Example 23] | < 100 nM | C (>70%) | > 75% | 1 |  |
| O=C(NCCCCNC(=O)NCCOCCOCCNS(=O)(=O)c1ccc(O[C@H]2c3cc(Cl)cc(F)c3C[C@@H]2N2CCCCC2)cc1)NCCOCCOCCNS(=O)(=O)c1ccc(O[C@H]2c3cc(Cl)cc(F)c3C[C@@H]2N2CCCCC2)cc1 [Example 24] | < 100 nM | C (>70%) | > 75% |  |  |
| CN(C)[C@H]1Cc2c(F)cc(Cl)cc2[C@@H]1Oc1ccc(S(=O)(=O)NCCOCCOCCNC(=O)NCCCCNC(=O)NCCOCCOCCNS(=O)(=O)c2ccc(O[C@H]3c4cc(Cl)cc(F)c4C[C@@H]3N(C)C)cc2)cc1 [Example 25] | < 100 nM | C (>70%) | > 75% |  |  |
| O=C(NCCCCNC(=O)NCCOCCOCCNS(=O)(=O)c1ccc(O[C@H]2c3cc(Cl)cc(Cl)c3C[C@@H]2N2CC[C@@H](O)C2)cc1)NCCOCCOCCNS(=O)(=O)c1ccc(O[C@H]2c3cc(Cl)cc(Cl)c3C[C@@H]2N2CC[C@@H](O)C2)cc1 [Example 30] | < 100 nM | C (>70%) |  |  | 35 to 75% |
| CN(C)[C@H]1Cc2c(Cl)cc(Cl)cc2[C@@H]1Oc1ccc(S(=O)(=O)NCCOCCOCCNC(=O)C(C)(C)C(=O)NCCOCCOCCNS(=O)(=O)c2ccc(O[C@H]3c4cc(Cl)cc(Cl)c4C[C@@H]3N(C)C)cc2)cc1 [Example 36] | 100 to 1000 nM | C (>70%) | 35 to 75% | 2 |  |
